We go through three compounds from patent EP1902732A1, “PROPHYLACTIC/THERAPEUTIC AGENT FOR HER2-EXPRESSING CANCER” (Takeda Pharmaceutical Company Limited, priority 2005, dated 2006).

Bounds are passed on as bounds.

One assay concerns Akt. In words: Western blotting of phosphorylated Akt in BT-474 cells. The class given is cell-based, human. How it is done:
(§1) Human HER2-expressing human breast cancer cell line BT-474 (purchased from American Tissue Culture Collection (ATCC)) was seeded into a 24-multiwell plate (BT-474: 1.2 x 10^5 cells/well), and cultured overnight in a carbon dioxide gas incubator (5% CO2, 37°C). A 4-fold dilution series of a mitochondrial respiratory chain complex inhibiting compound (complex I: rotenone, complex III: antimycin, complex V: oligomycin: Wako Pure Chemical Industries) was added starting from a final concentration of 1 µmol/L in 5 steps while continuing culture. After 2 hours, the broth was removed, and the cells were lysed with an SDS sample buffer (200 µL). Western blotting analysis was performed as follows. Specifically, this cell lysate (8 µL) was separated by an SDS-PAGE method (gel concentration: 7.5-15%) (Analytical Biochemistry, No. 166, pp. 368-379, 1987), and transferred to a nitrocellulose membrane (BioRad). Then, an antibody specific to phosphorylated HER2 (Cell signaling technology, Code# 2244), an anti-phosphorylated Akt antibody specific to downstream antiapoptotic signal transducing molecule Akt (Cell signaling technology, Code# 9271) and an anti-phosphorylated MAPK antibody specific to downstream proliferation signal transducing molecule MAPK (Cell signaling technology, Code# 9101) were used to detect the antibody with an ECL system (Amersham) to quantify the amount of phosphorylated protein by an image analysis.
(§2) Human HER2-expressing human cancer cell line BT-474 (purchased from ATCC) was seeded into a 24-multiwell plate (1.2 x 10^5 cells/well) and cultured overnight in a carbon dioxide gas incubator (20% O2, 5% CO2, 37°C). A 3-fold dilution series of metformin that activates AMPK (The Journal of Biological Chemistry, Vol. 279, No. 42, pp. 43940-43951, 2004) was added starting from a final concentration of 15 mmol/L in 5 steps while continuing culture. Two hours later, the broth was removed and the cells were lysed with an SDS sample buffer (200 µL). This cell lysate (8 µL) was separated by an SDS-PAGE method (gel concentration: 7.5-15%) (Analytical Biochemistry, No. 166, pp. 368-379, 1987). Then, western blotting analysis was performed in the same manner as in Example 1 to quantify phosphorylated HER2, phosphorylated Akt and phosphorylated MAPK.
(In general: Immunoblotting shows a protein as a band on a membrane.)

Another assay deals with MAPK. In words: Western blotting of phosphorylated MAPK in BT-474 cells. The class given is cell-based, human. How it is done: as §1, §2
The subject of the next assay is HER2. In words: Western blotting of phosphorylated HER2 in BT-474 cells. The class given is cell-based, human. The protocol:
as §1, §2
Human HER2-expressing human breast cancer cell line BT-474 (purchased from American Tissue Culture Collection (ATCC)) was seeded into a 24-multiwell plate (BT-474: 1.2 x 10^5 cells/well), and cultured overnight in a carbon dioxide gas incubator (5% CO2, 37°C). Mitochondrial respiratory chain complex 1-inhibiting compound rotenone (Wako Pure Chemical Industries) was added in 5 steps at final concentrations of 1, 0.333, 0.111, 0.033 and 0.011 µmol/L while continuing culture. Two hours later, the broth was removed and the cells were lysed with an SDS sample buffer (200 µL). Then, this cell lysate was used to perform western blotting analysis. Specifically, this cell lysate (8 µL) was separated by an SDS-PAGE method (gel concentration: 7.5-15%) (Analytical Biochemistry, No. 166, pp. 368-379, 1987) and transferred to a nitrocellulose membrane (BioRad). Then, an antibody specific to phosphorylated HER2 (Cell signaling technology, Code# 2244), an AMPK antibody specific to AMPK (Cell signaling technology, Code# 2535) and an anti-phosphorylated AMPK antibody specific to phosphorylated AMPK (Cell signaling technology, Code# 2532) were used to detect the antibody by chemiluminescent detection with an ECL system (Amersham) to quantify an amount of phosphorylated protein with LAS-1000 plus image analysis device (FUJIFILM).
Human HER2-expressing human breast cancer cell line BT-474 (purchased from American Tissue Culture Collection (ATCC)) was seeded into a 24-multiwell plate (BT-474: 1.2 x 10^5 cells/well) and cultured overnight in a carbon dioxide gas incubator (5% CO2, 37°C). […]

For assay [1], the system named is phosphorylated acetyl-CoA carboxylase (ACC). In words: Western blotting of phosphorylated ACC in BT-474 cells. The class given is cell-based, human. Particulars: Example 7, two hours, antimycin 1-0.01 nmol/L, oligomycin 100-1 ng/mL, 2,4-dinitrophenol 300-3 µmol/L. The protocol:
(§3) Human HER2-expressing human breast cancer cell line BT-474 (purchased from American Tissue Culture Collection (ATCC)) was seeded into a 24-multiwell plate (BT-474: 1.2 x 10^5 cells/well) and cultured overnight in a carbon dioxide gas incubator (5% CO2, 37°C). As an energy metabolism inhibitor having a mechanism that differed from that of rotenone, mitochondrial respiratory chain complex III-inhibiting compound antimycin (Wako Pure Chemical Industries) was added to final concentrations of 1, 0.3, 0.1, 0.03 and 0.01 nmol/L while continuing culture. Using another plate, mitochondrial respiratory chain complex V-inhibiting compound oligomycin (Wako Pure Chemical Industries) was added to final concentrations of 100, 30, 10, 3 and 1 ng/mL while continuing culture. In addition, 2,4-dinitrophenol was added to 300, 100, 30, 10 and 3 µmol/L while continuing culture. Two hours after the addition of the agent, the broth was removed and the cells were lysed with an SDS sample buffer (200 µL). Then, this cell lysate was used to perform western blotting analysis. Specifically, this cell lysate (8 µL) was separated by an SDS-PAGE method (gel concentration: 7.5-15%) (Analytical Biochemistry, No. 166, pp. 368-379, 1987) and transferred onto a nitrocellulose membrane (BioRad). Then, an antibody specific to phosphorylated HER2 (Cell signaling technology, Code# 2244), pACC antibody specific to phosphorylated acetyl-CoA carboxylase (ACC) (Cell signaling technology, Code# 3661) and anti-phosphorylated S6K antibody specific to phosphorylated S6 kinase (S6K) (Cell signaling technology, Code# 9209) were used to detect the antibody by chemiluminescent detection with an ECL system (Amersham) to quantify an amount of phosphorylated protein with LAS-1000 plus image analysis device (FUJIFILM).

The test system of assay [2] is phosphorylated S6 kinase (S6K). In words: Western blotting of phosphorylated S6K in BT-474 cells. It counts as cell-based, human. As to conditions: Example 7, two hours, antimycin 1-0.01 nmol/L, oligomycin 100-1 ng/mL, 2,4-dinitrophenol 300-3 µmol/L. How it is done: as §3
The subject of the next assay is A498 kidney cancer cell. In words: Viable cell count using Cell Counting Kit-F. As to conditions: five days of culture. The class given is cell-based. How it is done: (§4) BT-474 breast cancer cell, MDA-MB-453 breast cancer cell, A549 non-small cell lung cancer cell and LNCaP prostate cancer cell were used as human HER2-expressing cells while MDA-MB-231 breast cancer cell and A498 kidney cancer cell (all purchased from ATCC) were used as HER2-nonexpressing cells. Each of the cells used had been seeded into a 96-plate at 500cells/150 µL/well and cultured overnight. Each of the compounds, i.e., antimycin (final concentrations: 1, 0.1, 0.01 and 0.001 µmol/L), 2,4-dinitrophenol (final concentrations: 0.6, 0.2, 0.06 and 0.02 mmol/L), metformin (final concentrations: 25, 5, 1 and 0.2 mmol/L) and AICAR (final concentrations: 25, 5, 1 and 0.2 mmol/L) was diluted with a medium and added for 50 µL/well at a time to the final concentrations mentioned above. Following five days of culture at 37°C in 5% CO2, the cells were counted using Cell Counting Kit-F (Dojindo Laboratories).
(§5) Viable cell count using Cell Counting Kit-F was carried out by the following method according to the attached instruction. The supernatant was removed from the 96-well plate after five days of culture. Cell Counting Kit-F diluted 1000-fold with an RPMI medium (phenol red-free, serum-free) was added for 100 µL/well at a time. After 30 minutes of reaction at room temperature, fluorescence (excitation wavelength; 480 nm, fluorescent wavelength; 530 nm) was determined with a fluorescent plate reader.
(§6) From the determination results, percentage of the fluorescence level in the wells added with the compound was determined assuming that the fluorescence level in the wells without the addition of the compound (control) is 100%, and the remaining cellular quantity was determined in % with respect to that of the control.
(§7) BT-474 breast cancer cell, MDA-MB-453 breast cancer cell and LNCaP prostate cancer cell were used as human HER2-expressing cells while MDA-MB-231 breast cancer cell and A498 kidney cancer cell (all purchased from ATCC) were used as HER2-nonexpressing cells. Each of the cells used had been seeded into a 96-well plate at 500 cells/150 µL/well and cultured overnight. Troglitazone (final concentrations: 25, 6.25 and 1.56 µmol/L) was diluted with a medium, and added for 50 µL/well at a time to the final concentrations mentioned above. Following five days of culture at 37°C in 5% CO2, the cells were counted using Cell Counting Kit-F (Dojindo Laboratories).
(§8) From the determination results, percentage of the fluorescence level in the wells added with troglitazone was determined assuming that the fluorescence level in the wells without the addition of troglitazone (control) is 100%, and the remaining cellular quantity was determined in % with respect to that of the control.
A general note: Tetrazolium assays rely on reduction of a dye to a coloured formazan, in cell work by metabolically active cells.

The test system of assay [3] is MDA-MB-231 breast cancer cell. In words: Viable cell count using Cell Counting Kit-F. It counts as cell-based. Particulars: five days of culture. The protocol:
as §4, §5, §6, §7, §8

Assay [4] concerns BT-474 breast cancer cell. In words: Viable cell count using Cell Counting Kit-F. The class given is cell-based, human. As to conditions: five days of culture. The protocol:
as §4, §5, §6, §7, §8

Assay [5] has as its system LNCaP prostate cancer cell. In words: Viable cell count using Cell Counting Kit-F. The class given is cell-based, human. Particulars: five days of culture. The protocol:
as §4, §5, §6, §7, §8

In assay [6] the test system is MDA-MB-453 breast cancer cell. In words: Viable cell count using Cell Counting Kit-F. The class given is cell-based, human. Particulars: five days of culture. The protocol:
as §4, §5, §6, §7, §8

In the next assay the test system is DU145. In words: Viable cell count using Cell Counting Kit-F. It counts as cell-based. As to conditions: HER2-nonexpressing cancer, five days of culture.
The subject of assay [7] is A549 non-small cell lung cancer cell. In words: Viable cell count using Cell Counting Kit-F. It counts as cell-based, human. Particulars: HER2-expressing cancer, five days of culture. How it is done:
as §4, §5, §6

The mark [8] stands for this setting: Example 2, 4-fold dilution series from 1 µmol/L in 5 steps, 2 hours.
Setting [9] is: Example 5, 3-fold dilution series from 15 mmol/L in 5 steps, two hours.

With `CC[C@H]1/C=C/C=C/C[C@@H](C)[C@H](O)[C@@](C)(O)C(=O)[C@@H](C)[C@H](O)[C@@H](C)C(=O)[C@@H](C)[C@H](O)[C@@H](C)/C=C/C(=O)O[C@@H]2[C@H](C)[C@H](CC1)O[C@]1(CC[C@H](C)[C@H](C[C@@H](C)O)O1)[C@H]2C` [oligomycin], the Akt phosphorylation result with Akt (setting [8]) was “suppressions of Akt and MAPK phosphorylations were also confirmed”. For the same compound, in the assay on MAPK (setting [8]), the MAPK phosphorylation entry was “suppressions of Akt and MAPK phosphorylations were also confirmed”. Further, the HER2 phosphorylation result with HER2 (setting [8]) is “suppression of HER2 phosphorylation was confirmed”; with HER2 (Example 7, two hours, antimycin 1-0.01 nmol/L, oligomycin 100-1 ng/mL, 2,4-dinitrophenol 300-3 µmol/L) it was “decreased dose-dependently”. Moreover, the “phosphorylation of ACC” value in assay [1] is on record as “increased dose-dependently”. Besides, the “phosphorylation of S6K” value in [2] is listed as “suppressed”.

`Cc1c(C)c2c(c(C)c1O)CCC(C)(COc1ccc(CC3SC(=O)NC3=O)cc1)O2` (stereo not drawn) [troglitazone]: the inhibition at 25 µM in the assay on A498 kidney cancer cell (Homo sapiens, 120 h, A498 cell, HER2-nonexpressing, 25 µmol/L, read-out: proliferation inhibited to (remaining cellular quantity in % with respect to that of the control)) came out at 105%; in assay [3] (Homo sapiens, 120 h, MDA-MB-231 cell, HER2-nonexpressing, 25 µmol/L, read-out: proliferation inhibited to (remaining cellular quantity in % with respect to that of the control)) it was 100%; in assay [4] (Homo sapiens, BT-474, 120 h, BT474 cell, 25 µmol/L, read-out: proliferation inhibited to (remaining cellular quantity in % with respect to that of the control)) it was 50%; in assay [5] (Homo sapiens, 120 h, LNCaP cell, 25 µmol/L, read-out: proliferation inhibited to (remaining cellular quantity in % with respect to that of the control)), 48%; in assay [6] (Homo sapiens, MDA-MB-453, 120 h, MB453 cell, 25 µmol/L, read-out: proliferation inhibited to (remaining cellular quantity in % with respect to that of the control)), 25%.

With `CN(C)C(=N)N=C(N)N` [metformin], the “minimum concentrations for inhibiting cell proliferation for 50% or more” value is above 25 mmol/L with A498 kidney cancer cell (A498, HER2-nonexpressing cancer); above 25 mmol/L in assay [3] (MB231, HER2-nonexpressing cancer); 1 mmol/L in assay [4] (BT474, HER2-expressing cancer); 1 mmol/L in [5] (LNCaP, HER2-expressing cancer); 1 mmol/L in assay [6] (MB453, HER2-expressing cancer); above 25 mmol/L in the assay with DU145. In assay [7], the “minimum concentrations for inhibiting cell proliferation for 50% or more” value amounted to 5 mmol/L. Moreover, the Akt phosphorylation result in the assay on Akt (setting [9]) is “suppressions of Akt and MAPK phosphorylations were also confirmed”. Besides, the MAPK phosphorylation entry in the assay with MAPK (setting [9]) was “suppressions of Akt and MAPK phosphorylations were also confirmed”. Also, in the assay with HER2 (setting [9]), the HER2 phosphorylation result is “concentration-dependent suppression of HER2 phosphorylation”.
